According to publication PMC7345083, “Vancomycin-Lipopeptide Conjugates with High Antimicrobial Activity on Vancomycin-Resistant Enterococci” (Pharmaceuticals, 2020):
In brackets after ≈: the same amount, converted by molar mass.

Tests used:
[1] = system: Enterococcus casseliflavus ATCC 700327 (vanC); format: cell-based; conditions: ATCC 700327, 18 h
Experimental: (§1) The minimum inhibitory concentration (MIC) was determined by microdilution following the EUCAST and CLSI guidelines via the broth microdilution assay on a 96-well plate. Substances were dissolved in saline solution (0.9%) at a concentration equimolar to 1.28 mg/mL vancomycin. With an increasing hydrophobicity, some substances had to be pre-dissolved in DMSO. The final concentration of DMSO remained below 1.5% and was compared to the DMSO control (no antimicrobial effect was observed up to the highest concentration tested (10%)). All substances were serially diluted on the 96-well plate using Mueller-Hinton-Broth II (cation adjusted). Vancomycin was always used as a control. For bacterial loading, an overnight culture of the referring strain was taken and adjusted to a turbidity corresponding to 10^8 cfu/mL. The bacterial suspension was further diluted to load a bacterial number of 10^6 cfu/mL on the 96-well plate and incubate it for 18 h at 35 ± 1 °C, as described before. MIC was defined as the lowest concentration without visible growth.

[2] = system: Enterococcus faecium UL602570 (vanA, clinical isolate); format: cell-based; conditions: UL602570 (vanA, clinical isolate, 18 h)
Experimental: as §1

[3] = system: E. faecalis ATCC 51299 (vanB); format: cell-based, Enterococcus faecalis; conditions: ATCC 51299, 18 h
Experimental: as §1

[4] = system: E. faecium ATCC 51559 (vanA); format: cell-based, Enterococcus faecium; conditions: ATCC 51559, 18 h
Experimental: as §1

Structure (SMILES)	MIC median [1]	MIC range [1]	MIC median [2]	MIC range [2]	MIC median [3]	MIC median [4]	MIC range [4]
CCCCCCCCCCCC(=O)N[C@@H](CCCNC(=N)N)C(=O)N[C@@H](CCCNC(=N)N)C(=O)N[C@@H](CCCNC(=N)N)C(=O)N[C@@H](CSC1CC(=O)N(CC2CCC(C(=O)NCCN[C@@]3(C)C[C@H](O[C@H]4[C@H](Oc5c6cc7cc5Oc5ccc(cc5Cl)[C@@H](O)[C@@H](NC(=O)[C@@H](CC(C)C)NC)C(=O)N[C@@H](CC(N)=O)C(=O)N[C@H]7C(=O)N[C@H]5C(=O)N[C@H](C(=O)N[C@H](C(=O)O)c7cc(O)cc(O)c7-c7cc5ccc7O)[C@H](O)c5ccc(c(Cl)c5)O6)O[C@H](CO)[C@@H](O)[C@@H]4O)O[C@@H](C)[C@H]3O)CC2)C1=O)C(N)=O (stereo partly drawn) [VV-R3C-C12]	2.5 µg/mL (≈ 1.01 µM)	0.5 to 4 µg/mL	0.24 µg/mL (≈ 0.0967 µM)	0.06 to 0.48 µg/mL	4 µg/mL (≈ 1.61 µM)	3.88 µg/mL (≈ 1.56 µM)	3.88 to 7.75 µg/mL
CCCCCCCCCCCC(=O)N[C@@H](CCCNC(=N)N)C(=O)N[C@@H](CCCNC(=N)N)C(=O)N[C@@H](CCCNC(=N)N)C(=O)N[C@@H](CSC1CC(=O)N(CC2CCC(C(=O)N(C)[C@H](CC(C)C)C(=O)N[C@H]3C(=O)N[C@@H](CC(N)=O)C(=O)N[C@H]4C(=O)N[C@H]5C(=O)N[C@H](C(=O)N[C@H](C(=O)O)c6cc(O)cc(O)c6-c6cc5ccc6O)[C@H](O)c5ccc(c(Cl)c5)Oc5cc4cc(c5O[C@@H]4O[C@H](CO)[C@@H](O)[C@H](O)[C@H]4O[C@H]4C[C@](C)(N)[C@H](O)[C@H](C)O4)Oc4ccc(cc4Cl)[C@H]3O)CC2)C1=O)C(N)=O (stereo partly drawn) [VN-R3C-C12]	2.5 µg/mL (≈ 1.02 µM)	1 to 4 µg/mL	2.37 µg/mL (≈ 0.971 µM)	2.37 to 4.73 µg/mL	4 µg/mL (≈ 1.64 µM)	4.72 µg/mL (≈ 1.93 µM)	4.72 to 9.44 µg/mL
CCCCCCCCCCCCCCCCCC(=O)N[C@@H](CCCNC(=N)N)C(=O)N[C@@H](CCCNC(=N)N)C(=O)N[C@@H](CCCNC(=N)N)C(=O)N[C@@H](CSC1CC(=O)N(CC2CCC(C(=O)NCCN[C@@]3(C)C[C@H](O[C@H]4[C@H](Oc5c6cc7cc5Oc5ccc(cc5Cl)[C@@H](O)[C@@H](NC(=O)[C@@H](CC(C)C)NC)C(=O)N[C@@H](CC(N)=O)C(=O)N[C@H]7C(=O)N[C@H]5C(=O)N[C@H](C(=O)N[C@H](C(=O)O)c7cc(O)cc(O)c7-c7cc5ccc7O)[C@H](O)c5ccc(c(Cl)c5)O6)O[C@H](CO)[C@@H](O)[C@@H]4O)O[C@@H](C)[C@H]3O)CC2)C1=O)C(N)=O (stereo partly drawn) [VV-R3C-C18]			2.54 µg/mL (≈ 0.99 µM)	1.27 to 2.54 µg/mL			
CCCCCCCC(=O)N[C@@H](CCCNC(=N)N)C(=O)N[C@@H](CCCNC(=N)N)C(=O)N[C@@H](CCCNC(=N)N)C(=O)N[C@@H](CSC1CC(=O)N(CC2CCC(C(=O)NCCN[C@@]3(C)C[C@H](O[C@H]4[C@H](Oc5c6cc7cc5Oc5ccc(cc5Cl)[C@@H](O)[C@@H](NC(=O)[C@@H](CC(C)C)NC)C(=O)N[C@@H](CC(N)=O)C(=O)N[C@H]7C(=O)N[C@H]5C(=O)N[C@H](C(=O)N[C@H](C(=O)O)c7cc(O)cc(O)c7-c7cc5ccc7O)[C@H](O)c5ccc(c(Cl)c5)O6)O[C@H](CO)[C@@H](O)[C@@H]4O)O[C@@H](C)[C@H]3O)CC2)C1=O)C(N)=O (stereo partly drawn) [VV-R3C-C8]			1.49 µg/mL (≈ 0.614 µM)	0.30 to 2.39 µg/mL			
CCCCCCCCCCCC(=O)N[C@@H](CCCNC(=N)N)C(=O)N[C@@H](CCCNC(=N)N)C(=O)N[C@@H](CCCNC(=N)N)C(=O)N[C@H](Cc1ccc(O)cc1)C(=O)N[C@@H](CSC1CC(=O)N(CC2CCC(C(=O)NCCN[C@@]3(C)C[C@H](O[C@H]4[C@H](Oc5c6cc7cc5Oc5ccc(cc5Cl)[C@@H](O)[C@@H](NC(=O)[C@@H](CC(C)C)NC)C(=O)N[C@@H](CC(N)=O)C(=O)N[C@H]7C(=O)N[C@H]5C(=O)N[C@H](C(=O)N[C@H](C(=O)O)c7cc(O)cc(O)c7-c7cc5ccc7O)[C@H](O)c5ccc(c(Cl)c5)O6)O[C@H](CO)[C@@H](O)[C@@H]4O)O[C@@H](C)[C@H]3O)CC2)C1=O)C(N)=O (stereo partly drawn) [VV-R3yC-C12]			1.02 µg/mL (≈ 0.386 µM)	0.25 to 2.03 µg/mL			
CCCCCCCCCCCCCC(=O)N[C@@H](CCCNC(=N)N)C(=O)N[C@@H](CCCNC(=N)N)C(=O)N[C@@H](CCCNC(=N)N)C(=O)N[C@@H](CSC1CC(=O)N(CC2CCC(C(=O)NCCN[C@@]3(C)C[C@H](O[C@H]4[C@H](Oc5c6cc7cc5Oc5ccc(cc5Cl)[C@@H](O)[C@@H](NC(=O)[C@@H](CC(C)C)NC)C(=O)N[C@@H](CC(N)=O)C(=O)N[C@H]7C(=O)N[C@H]5C(=O)N[C@H](C(=O)N[C@H](C(=O)O)c7cc(O)cc(O)c7-c7cc5ccc7O)[C@H](O)c5ccc(c(Cl)c5)O6)O[C@H](CO)[C@@H](O)[C@@H]4O)O[C@@H](C)[C@H]3O)CC2)C1=O)C(N)=O (stereo partly drawn) [VV-R3C-C14]			0.46 µg/mL (≈ 0.183 µM)	0.31 to 0.62 µg/mL			
CCCCCCCCCCCC(=O)N[C@@H](CCCNC(=N)N)C(=O)N[C@@H](CCCNC(=N)N)C(=O)N[C@@H](CCCNC(=N)N)C(=O)N[C@@H](CSC1CC(=O)N(CC2CCC(C(=O)NCCNC(=O)[C@H]3NC(=O)[C@H]4NC(=O)[C@H](NC(=O)[C@@H]5NC(=O)[C@H](CC(N)=O)NC(=O)[C@H](NC(=O)[C@@H](CC(C)C)NC)[C@H](O)c6ccc(c(Cl)c6)Oc6cc5cc(c6O[C@@H]5O[C@H](CO)[C@@H](O)[C@H](O)[C@H]5O[C@H]5C[C@](C)(N)[C@H](O)[C@H](C)O5)Oc5ccc(cc5Cl)[C@H]4O)c4ccc(O)c(c4)-c4c(O)cc(O)cc43)CC2)C1=O)C(N)=O (stereo partly drawn) [VC-R3C-C12]	4 µg/mL (≈ 1.61 µM)	1 to 4 µg/mL	4.84 µg/mL (≈ 1.95 µM)	2.42 to 4.84 µg/mL	4 µg/mL (≈ 1.61 µM)	4.84 µg/mL (≈ 1.95 µM)	4.84 to 9.69 µg/mL
CCCCCCCCCCCCCCCC(=O)N[C@@H](CCCNC(=N)N)C(=O)N[C@@H](CCCNC(=N)N)C(=O)N[C@@H](CCCNC(=N)N)C(=O)N[C@@H](CSC1CC(=O)N(CC2CCC(C(=O)NCCNC(=O)[C@H]3NC(=O)[C@H]4NC(=O)[C@H](NC(=O)[C@@H]5NC(=O)[C@H](CC(N)=O)NC(=O)[C@H](NC(=O)[C@@H](CC(C)C)NC)[C@H](O)c6ccc(c(Cl)c6)Oc6cc5cc(c6O[C@@H]5O[C@H](CO)[C@@H](O)[C@H](O)[C@H]5O[C@H]5C[C@](C)(N)[C@H](O)[C@H](C)O5)Oc5ccc(cc5Cl)[C@H]4O)c4ccc(O)c(c4)-c4c(O)cc(O)cc43)CC2)C1=O)C(N)=O (stereo partly drawn) [VC-R3C-C16]			5.00 µg/mL (≈ 1.97 µM)	5.00 to 10.00 µg/mL			
CCCCCCCCCCCCCCCCCC(=O)N[C@@H](CCCNC(=N)N)C(=O)N[C@@H](CCCNC(=N)N)C(=O)N[C@@H](CCCNC(=N)N)C(=O)N[C@@H](CSC1CC(=O)N(CC2CCC(C(=O)NCCNC(=O)[C@H]3NC(=O)[C@H]4NC(=O)[C@H](NC(=O)[C@@H]5NC(=O)[C@H](CC(N)=O)NC(=O)[C@H](NC(=O)[C@@H](CC(C)C)NC)[C@H](O)c6ccc(c(Cl)c6)Oc6cc5cc(c6O[C@@H]5O[C@H](CO)[C@@H](O)[C@H](O)[C@H]5O[C@H]5C[C@](C)(N)[C@H](O)[C@H](C)O5)Oc5ccc(cc5Cl)[C@H]4O)c4ccc(O)c(c4)-c4c(O)cc(O)cc43)CC2)C1=O)C(N)=O (stereo partly drawn) [VC-R3C-C18]			10.17 µg/mL (≈ 3.96 µM)	5.08 to 10.17 µg/mL			
CN[C@H](CC(C)C)C(=O)N[C@H]1C(=O)N[C@@H](CC(N)=O)C(=O)N[C@H]2C(=O)N[C@H]3C(=O)N[C@H](C(=O)N[C@H](C(=O)NCCNC(=O)C4CCC(CN5C(=O)CC(SC[C@H](NC(=O)[C@H](CCCNC(=N)N)NC(=O)[C@H](CCCNC(=N)N)NC(=O)[C@@H](N)CCCNC(=N)N)C(N)=O)C5=O)CC4)c4cc(O)cc(O)c4-c4cc3ccc4O)[C@H](O)c3ccc(c(Cl)c3)Oc3cc2cc(c3O[C@@H]2O[C@H](CO)[C@@H](O)[C@H](O)[C@H]2O[C@H]2C[C@](C)(N)[C@H](O)[C@H](C)O2)Oc2ccc(cc2Cl)[C@H]1O (stereo partly drawn) [VC-R3C]			34.75 µg/mL (≈ 15.1 µM)	17.38 to 34.75 µg/mL			
CCCCCCCCCC(=O)N[C@@H](CCCNC(=N)N)C(=O)N[C@@H](CCCNC(=N)N)C(=O)N[C@@H](CCCNC(=N)N)C(=O)N[C@@H](CSC1CC(=O)N(CC2CCC(C(=O)N(C)[C@H](CC(C)C)C(=O)N[C@H]3C(=O)N[C@@H](CC(N)=O)C(=O)N[C@H]4C(=O)N[C@H]5C(=O)N[C@H](C(=O)N[C@H](C(=O)O)c6cc(O)cc(O)c6-c6cc5ccc6O)[C@H](O)c5ccc(c(Cl)c5)Oc5cc4cc(c5O[C@@H]4O[C@H](CO)[C@@H](O)[C@H](O)[C@H]4O[C@H]4C[C@](C)(N)[C@H](O)[C@H](C)O4)Oc4ccc(cc4Cl)[C@H]3O)CC2)C1=O)C(N)=O (stereo partly drawn) [VN-R3C-C10]			4.66 µg/mL (≈ 1.93 µM)	4.66 to 9.31 µg/mL			
CN[C@H](CC(C)C)C(=O)N[C@H]1C(=O)N[C@@H](CC(N)=O)C(=O)N[C@H]2C(=O)N[C@H]3C(=O)N[C@H](C(=O)N[C@H](C(=O)O)c4cc(O)cc(O)c4-c4cc3ccc4O)[C@H](O)c3ccc(c(Cl)c3)Oc3cc2cc(c3O[C@@H]2O[C@H](CO)[C@@H](O)[C@H](O)[C@H]2O[C@H]2C[C@](C)(NCCNC(=O)C3CCC(CN4C(=O)CC(SC[C@H](NC(=O)[C@H](CCCNC(=N)N)NC(=O)[C@H](CCCNC(=N)N)NC(=O)[C@@H](N)CCCNC(=N)N)C(N)=O)C4=O)CC3)[C@H](O)[C@H](C)O2)Oc2ccc(cc2Cl)[C@H]1O (stereo partly drawn) [VV-R3C]			4.35 µg/mL (≈ 1.89 µM)	4.35 to 8.69 µg/mL			
